Molecules are shown by their SMILES.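 Each compound was tested at five concentrations against cells in 96-well plates for 48 hours. Definition used: TGI = concentration required for complete inhibition of growth.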 *1 amine or outer side, *2 acyl side, *3 side chain or, on linkers, in order; H or OH if unused. Where a SMILES comes first, the peptide text is derived from it. The star is where a group is joined. γGlu = O=C(O)[CH](CCC(=O)[*:2])N[*:1]; NHOH = ON*

Among the test systems are MDA-MB-435; SK-MEL-2 melanoma; HCT-15 colon; NCI-H460 lung; MOLT-4 leukemia; SK-MEL-28 melanoma; MDA-MB-231 breast; RPMI-8226 leukemia; SW-620 colon; NCI/ADR-RES ovarian; OVCAR-3 ovarian; SNB-75 CNS; HT29 colon; RXF 393 renal; MDA-N; SF-268 CNS; NCI-H23 lung; SN12C renal; HL-60(TB) leukemia; PC-3 prostate.
What all share (test): NCI-60 cell line screen, 48 h

Regarding `COc1ccc(/C=C2\CCc3cc(OC)c(OC)cc3C2=O)cc1`, the TGI in the assay with MDA-MB-435, with SK-MEL-2 melanoma, in the assay on HCT-15 colon, in the assay with NCI-H460 lung, with MOLT-4 leukemia and in the assay on SK-MEL-28 melanoma was greater than 10 µM throughout. For the same compound, the TGI in the assay with MDA-MB-231 breast, with RPMI-8226 leukemia, in the assay on SW-620 colon, with NCI/ADR-RES ovarian, in the assay on OVCAR-3 ovarian and in the assay on SNB-75 CNS was greater than 10 µM throughout. The TGI in the assay with HT29 colon, in the assay with RXF 393 renal, in the assay with MDA-N, with SF-268 CNS, in the assay on NCI-H23 lung and in the assay on SN12C renal was greater than 10 µM each time. Also, the TGI with HL-60(TB) leukemia and with PC-3 prostate was greater than 10 µM in each case.

With `CCOC(=O)CNC(=O)C(CCC(=O)NO)NC(=O)CCC(N)C(=O)O` (stereo not given) (γGlu-Glu(NHOH)-Gly-OEt; configuration not given here), the TGI in the assay on MDA-MB-435, with SK-MEL-2 melanoma, with HCT-15 colon, with NCI-H460 lung, with MOLT-4 leukemia and with SK-MEL-28 melanoma was greater than 100 µM in each case. The TGI in the assay with MDA-MB-231 breast, in the assay with RPMI-8226 leukemia, in the assay with SW-620 colon, with NCI/ADR-RES ovarian, in the assay on OVCAR-3 ovarian and in the assay on SNB-75 CNS was greater than 100 µM in each case. The TGI with HT29 colon, in the assay with RXF 393 renal, with MDA-N, in the assay on SF-268 CNS, in the assay on NCI-H23 lung and with SN12C renal was greater than 100 µM throughout. Besides, the TGI in the assay with HL-60(TB) leukemia and in the assay on PC-3 prostate was greater than 100 µM in each case.

Consider `N#CCC1(c2ccc(Cl)cc2)NC(=O)c2ccccc21` (stereo not given), for which the TGI with MDA-MB-435, in the assay on SK-MEL-2 melanoma, with HCT-15 colon, with NCI-H460 lung, in the assay with MOLT-4 leukemia and in the assay on SK-MEL-28 melanoma was greater than 100 µM in each case. The TGI in the assay with MDA-MB-231 breast, with RPMI-8226 leukemia, in the assay with SW-620 colon, with NCI/ADR-RES ovarian, with OVCAR-3 ovarian and in the assay on SNB-75 CNS was greater than 100 µM each time. The TGI in the assay on HT29 colon, in the assay on RXF 393 renal, in the assay with MDA-N, with SF-268 CNS, with NCI-H23 lung and with SN12C renal was greater than 100 µM in each case. Further, the TGI in the assay on HL-60(TB) leukemia and in the assay on PC-3 prostate was greater than 100 µM throughout.

As to `O=C(CSc1nc2ccc(I)cc2c(=O)n1Cc1ccccc1)NN1C(=O)c2ccccc2C1=O`, the TGI was greater than 100 µM with MDA-MB-435; 28.4 µM in the assay with SK-MEL-2 melanoma; greater than 100 µM with HCT-15 colon; greater than 100 µM with NCI-H460 lung; 95 µM in the assay on MOLT-4 leukemia; 49.9 µM in the assay with SK-MEL-28 melanoma. Besides, the TGI was 32 µM in the assay with MDA-MB-231 breast; greater than 100 µM with RPMI-8226 leukemia; greater than 100 µM in the assay on SW-620 colon; 42.8 µM in the assay on NCI/ADR-RES ovarian; 28.6 µM in the assay on OVCAR-3 ovarian; 21.8 µM in the assay with SNB-75 CNS. For the same compound, the TGI in the assay on HT29 colon is greater than 100 µM; with RXF 393 renal, 25.5 µM; with MDA-N it was greater than 100 µM; with SF-268 CNS, 36.4 µM; with NCI-H23 lung, 44.7 µM; in the assay on SN12C renal, 57.3 µM. In addition, the figures for the TGI with HL-60(TB) leukemia and with PC-3 prostate were 33.5 µM and 19.6 µM, respectively.

Regarding `COC(=O)/C=C1\CCCN1CCc1cc2c(cc1CC#N)OCO2`, the TGI in the assay with MDA-MB-435 was 45.1 µM; with SK-MEL-2 melanoma it was greater than 100 µM; in the assay on HCT-15 colon, greater than 100 µM; in the assay on NCI-H460 lung it was greater than 100 µM; with MOLT-4 leukemia it was greater than 100 µM; in the assay with SK-MEL-28 melanoma it was greater than 100 µM. Also, the TGI in the assay with MDA-MB-231 breast is greater than 100 µM; in the assay with RPMI-8226 leukemia, greater than 100 µM; in the assay with SW-620 colon, greater than 100 µM; in the assay on NCI/ADR-RES ovarian, greater than 100 µM; in the assay on OVCAR-3 ovarian it was 69.1 µM; in the assay with SNB-75 CNS it was 66.8 µM. The TGI in the assay with HT29 colon is greater than 100 µM; in the assay with RXF 393 renal, greater than 100 µM; in the assay on MDA-N, 45.6 µM; in the assay with SF-268 CNS it was greater than 100 µM; in the assay on NCI-H23 lung, greater than 100 µM; in the assay with SN12C renal it was greater than 100 µM. Besides, the TGI in the assay with HL-60(TB) leukemia and with PC-3 prostate was greater than 100 µM in each case.

On to `CCCCCC1=C2C(c3ccc(OC)cc3)=C(N)C(c3ccc(OC)cc3)=C3NC(=O)C(C=C1)C32` (stereo not given), for which the TGI in the assay with MDA-MB-435, in the assay on SK-MEL-2 melanoma, in the assay with HCT-15 colon, in the assay with NCI-H460 lung, in the assay with MOLT-4 leukemia and in the assay on SK-MEL-28 melanoma was greater than 100 µM in each case. In addition, the TGI with MDA-MB-231 breast, with RPMI-8226 leukemia, with SW-620 colon, with NCI/ADR-RES ovarian, in the assay on OVCAR-3 ovarian and in the assay with SNB-75 CNS was greater than 100 µM in each case. Moreover, the TGI was greater than 100 µM in the assay on HT29 colon; 54.1 µM in the assay on RXF 393 renal; greater than 100 µM with MDA-N; 38.9 µM in the assay with SF-268 CNS; greater than 100 µM in the assay on NCI-H23 lung; greater than 100 µM in the assay on SN12C renal. The TGI in the assay with HL-60(TB) leukemia and in the assay on PC-3 prostate was greater than 100 µM throughout.

Values taken from PubChem BioAssay (NCI).
